Laboratory results reported in patent publication US20100062012A1, “Negative Genetic Regulation of Cancer Cell Renewal in Synergy with Notch- or Numb-Specific Immunotherapy” (priority 2007, published 2010).
Where a name gives a salt, the structure may show the parent alone. Peptide text beside a SMILES is read from it. * marks the point of attachment. Cbz = O=C(OCc1ccccc1)*

Tests used:
MIA-PaCa-2 [1] = assay: Flow cytometry of NKG2D ligands MIC-A/B in drug-resistant cells; assay type: cell-based, human; conditions: MIA PaCa-2, FIG. 7A
Experimental: (§1) Flow cytometery analysis. All cells were cultured with Gem at 2×IC50 of gemcitabine for 10 days. Cultured cells (2×10^5) were washed in cold-PBS followed by blocking with 20 μL of 1 mg/mL of human IgG (Sigma, Saint Louis, Mo.) for 1 hour on ice. This step was necessary to inhibit non-specific binding of immunoglobulins during staining. Cells were then triple-stained with antibodies against ESA, CD44, and CD24. Analysis was performed with Becton Dickinson FACSCalibur and Cell Quest software (Becton Dickinson). Cells were gated on ESA+ population. Expression of CD24 and CD44 was examined in gated ESA+ cells as we described (26). The population of the ESA+, CD44hi and CD24low/− cells was calculated as percent of total cells and total ESA+ cells. All cell lines were also stained with a MIC-A/B and CD133, and analyzed as above.
To address the hypothesis that drug-resistant cancer cells are more sensitive to cellular immune effectors, we quantified expression of NKG2D ligands, MIC-A and -B (58, 59). ESA^+ MIA-PaCa-2 cells were analyzed for MIC-A/B. MCF7 cells were analyzed with CD44, CD24 and MIC-A/B (FIG. 7B), because almost all MCF7 cells (95% and more) expressed ESA.

MIA-PaCa-2 [2] = assay: Quantitative immunoblot of Notch and Numb proteins with or without GEM; assay type: cell-based, human
Experimental: (§2) Western blot analysis. Cell lysates of live MIA-PaCa-2, MCF7, and SKOV-3 were prepared as we described (74) after trypsin treatment of cultures. This procedure eliminated dead and dying cells. Cellular proteins were resolved by SDS-PAGE and transferred to a polyvinylidene difluoride membrance. Immuno-blotting and quantification was performed as we described (74). […] Notch signals promote survival and proliferation of normal stem cells. Notch signals are mediated by truncated intracellular domain (NICD), which activate transcription in the nucleus. Numb antagonizes Notch signal by inducing degradation of Notch (60, 13). Mammalian Numb has four splicing isoforms, which are divided into two types (Numb^L and Numb^S) based on the presence or absence of a 49 amino acid insert (5 kDa) in the proline-rich region (PRR) in the C-terminus. It is unclear whether Numb^L or Numb^S is a significant antagonist of Notch. To characterize expression of Notch and Numb proteins we performed quantitative immunoblot analysis of proteins in the lysates of live MIA-PaCa-2 and MCF7 cultured with or without GEM. (FIG. 9).

MCF7 [3] = assay: as above; assay type: cell-based, human
Experimental: as §2

AsPC-1 [4] = assay: MTT inhibition of proliferation; assay type: cell-based, human; conditions: for IC50: AsPC-1, MTT, 72 h
Description: (§3) Inhibition of proliferation of tumor cell lines by anticancer drugs.

SKOV-3 [5] = assay: MTT inhibition of proliferation; assay type: cell-based, human; conditions: SKOV-3, MTT
Description: as §3

MIA-PaCa-2 [6] = assay: Flow cytometry of CSt-C markers after culture with drugs; assay type: cell-based, human; conditions: for % CD44hi CD24- in ESA+ cells / % CD44hi CD24hi in ESA+ cells / % CD44hi CD24low in ESA+ cells / % CSt-like-C / % ESA+: MIA-PaCa-2 after culture with drug
Experimental: as §1

MCF7 [7] = assay: as above; assay type: cell-based, human; conditions: for cells harvested: after culture of 3×10^6 MCF-7 cells
Experimental: as §1

PANC-1 [8] = assay: as above; assay type: cell-based, human
Experimental: as §1

AsPC-1 [9] = assay: as above; assay type: cell-based, human; conditions: AsPC-1 after culture with drug
Experimental: as §1

SKOV-3 [10] = assay: as above; assay type: cell-based, human
Experimental: as §1

MIA-PaCa-2 [11] = assay: as above; assay type: cell-based, human; conditions: starting from 3.0×10^6 Mia-PaCa-2 cells
MCF7 cells = assay: Stimulation of MCF7 / GEMRes MCF7 by DLL4; assay type: cell-based, human
Experimental: Stimulation of GEMRes MCF7 by DLL4. GEMRes MCF7 were obtained after culture with 0.3 uM GEM for 7 weeks. MCF7 were stimulated for 24 hrs, in medium containing estradiol, fibroblast growth factor in the presence or absence of DLL4, as described (40).

MIA-PaCa-2 [12] = assay: MTT inhibition of proliferation; assay type: cell-based; conditions: Homo sapiens; MIA-PaCa-2, MTT, 72 h
Description: as §3

MCF7 [13] = assay: MTT inhibition of proliferation; assay type: cell-based; conditions: Homo sapiens, 72 h
Description: as §3

PANC-1 [14] = assay: MTT inhibition of proliferation; assay type: cell-based; conditions: Homo sapiens; PANC-1, MTT, 72 h
Description: as §3

breast tumors = conditions: reference 14; cited from earlier work
Ovarian and PC = assay: CD44+ CD24lo cells after taxol; assay type: cell-based; conditions: Ovarian and PC treated
SKOV3.A2 cells = assay: IFN-g production by Numb-1 peptide activated PBMC on SKOV3.A2 cells; assay type: cell-based, human; conditions: presentation of Numb-1(87-95) peptide; 24 h and 48 h
Experimental: FIG. 11. (A). SKOV3.A2 cells present the Numb-1 (87-95) peptide to Numb-1 peptide activated PBMC. Substantially higher, by 2-fold IFN-g production by Numb-1-peptide activated PBMC than by Notch peptides activated PBMC. Note that at 48 h the amount of IFN g produced by the two Notch peptide activated cell lines and the non-specifically, IL-2-activated cell lines was low and similar. Only Notch peptide, 2112-2120, can be presented by HL-A2 after Notch digestion by proteasome. (the program paproc.de). (B). Western analysis of Notch and Numb protein expression in SKOV3. […] A part of Numb is phosphorylated. A small part of Numb was phosphorylated at the Ser^283. A large part of Numb was phosphorylated at the Ser^264. […] The closed symbols indicate are 24 h measurements, the open symbols indicate 48 h measurements.

Nc1ccn([C@@H]2O[C@H](CO)[C@@H](O)C2(F)F)c(=O)n1 [GEM, gemcitabine hydrochloride]
number of cells expressing MICA and MICB in drug-resistant cells (MIA-PaCa-2 [1]): increased
NECD expression increase, GEMRes vs GEMSens (MIA-PaCa-2 [2]): 18%
NICD level increase, GEMRes vs GEMSens (MIA-PaCa-2 [2]): 35%
NumbL expression increase, GEMRes vs GEMSens (MIA-PaCa-2 [2]): 50%
NumbS decrease, GEMRes vs GEMSens (MIA-PaCa-2 [2]): 18%
NECD expression increase, GEMRes vs GEMSens (MCF7 [3]): 73%
NICD level decrease, GEMRes vs GEMSens (MCF7 [3]): 39%
NumbL expression decrease, GEMRes vs GEMSens (MCF7 [3]): 29%
NumbS decrease, GEMRes vs GEMSens (MCF7 [3]): 18%
IC50 (AsPC-1 [4]; hydrochloride): 20 nM
IC50 (AsPC-1 [4]; Homo sapiens, ASPC1, 72 h): < 20 nM
IC50 (SKOV-3 [5]; Homo sapiens, SK-OV-3, 72 h): < 20 nM
IC50 (SKOV-3 [5]; 72 h, hydrochloride): 16 nM
change of CSt-C (CSt-like-C) population (MIA-PaCa-2 [6]; MIA-PaCa-2): increased
% CD44hi CD24- in ESA+ cells (MIA-PaCa-2 [6]): 1.1%
% CD44hi CD24hi in ESA+ cells (MIA-PaCa-2 [6]): 12.2%
% CD44hi CD24low in ESA+ cells (MIA-PaCa-2 [6]): 43.2%
% CSt-like-C (MIA-PaCa-2 [6]): 17.0%
% ESA+ (MIA-PaCa-2 [6]): 39.5%
increase of ESA+ CD44hi CD24low and CD133+ populations in GEMRes population vs entire population (MIA-PaCa-2 [6]; Mia-PaCa-2): 3-5 fold
change of CSt-like-C population (MCF7 [7]; MCF7): increased
increase of ESA+ CD44hi CD24low and CD133+ populations in GEMRes population vs entire population (MCF7 [7]; MCF7): 3-5 fold
% CD44hi CD24- in ESA+ cells (MCF7 [7]; MCF7 after culture with drug): 0.3%
% CD44hi CD24hi in ESA+ cells (MCF7 [7]; MCF7 after culture with drug): 10.2%
% CD44hi CD24low in ESA+ cells (MCF7 [7]; MCF7 after culture with drug): 6.3%
% CSt-like-C (MCF7 [7]; MCF7 after culture with drug): 6.3%
% ESA+ (MCF7 [7]; MCF7 after culture with drug): 95.4%
cells harvested (MCF7 [7]): 0.6 ×10^6
increase of ESA+ CD44hi CD24low and CD133+ populations in GEMRes population vs entire population (PANC-1 [8]; PANC-1): 3-5 fold
% CD44hi CD24- in ESA+ cells (PANC-1 [8]; PANC-1 after culture with drug): 8.6%
% CD44hi CD24hi in ESA+ cells (PANC-1 [8]; PANC-1 after culture with drug): 9.7%
% CD44hi CD24low in ESA+ cells (PANC-1 [8]; PANC-1 after culture with drug): 50.0%
% CSt-like-C (PANC-1 [8]; PANC-1 after culture with drug): 38.3%
% ESA+ (PANC-1 [8]; PANC-1 after culture with drug): 76.7%
% CD44hi CD24- in ESA+ cells (AsPC-1 [9]): 19.3%
% CD44hi CD24hi in ESA+ cells (AsPC-1 [9]): 20.1%
% CD44hi CD24low in ESA+ cells (AsPC-1 [9]): 58.2%
% CSt-like-C (AsPC-1 [9]): 57.6%
% ESA+ (AsPC-1 [9]): 98.9%
increase of ESA+ CD44hi CD24low and CD133+ populations in GEMRes population vs entire population (SKOV-3 [10]; SKOV3): 3-5 fold
% CD44hi CD24- in ESA+ cells (SKOV-3 [10]; SKOV-3 after culture with drug): 0.1%
% CD44hi CD24hi in ESA+ cells (SKOV-3 [10]; SKOV-3 after culture with drug): 46.0%
% CD44hi CD24low in ESA+ cells (SKOV-3 [10]; SKOV-3 after culture with drug): 51.5%
% CSt-like-C (SKOV-3 [10]; SKOV-3 after culture with drug): 50.2%
% ESA+ (SKOV-3 [10]; SKOV-3 after culture with drug): 97.5%
cells harvested (MIA-PaCa-2 [11]): 1.3 ×10^6 cells
GEMRes MCF7 cells in G1 (resting) phase (MCF7 cells): > 90%
CD44hi CD24hi (% of cells) (MCF7 cells; MCF7): 19.7%
CD44hi CD24hi (cell number) (MCF7 cells; MCF7): 0.26
CD44hi CD24low (% of cells) (MCF7 cells; MCF7): (7.1%)
CD44hi CD24low (cell number) (MCF7 cells; MCF7): 0.09 × 10^6
ratio CD44hi CD24hi to CD44hi CD24low (MCF7 cells; MCF7): 2
Stimulation Index (MCF7 cells; MCF7, harvested/seeded): 0.44
Harvested cells (MCF7 cells; MCF7, seeded 3.0 x 10^6): 1.32 10^6
IC50 (MIA-PaCa-2 [12]): 300 nM
IC50 (MCF7 [13]): 430 nM
IC50 (PANC-1 [14]): 350 nM

CC(C)C[C@@H](C=O)NC(=O)[C@H](CC(C)C)NC(=O)[C@H](CC(C)C)NC(=O)OCc1ccccc1 [MG132] (Cbz-Leu-Leu-Leu-aldehyde)
low Numb levels after treatment (breast tumors): restored to high levels

CC(=O)O[C@H]1C(=O)[C@@]2(C)[C@H]([C@H](OC(=O)c3ccccc3)[C@]3(O)C[C@H](OC(=O)[C@H](O)[C@@H](NC(=O)c4ccccc4)c4ccccc4)C(C)=C1C3(C)C)[C@]1(OC(C)=O)CO[C@@H]1C[C@@H]2O [PTX, paclitaxel]
number of cells expressing MICA and MICB in drug-resistant cells (MIA-PaCa-2 [1]): did not increase
IC50 (AsPC-1 [4]; Homo sapiens, ASPC1, 72 h): 18.3 nM
IC50 in AsPC-1 relative to PANC-1 (AsPC-1 [4]; most resistant vs most sensitive line): more than 4 fold
IC50 (SKOV-3 [5]; Homo sapiens, SK-OV-3, 72 h): 4.7 nM
% CD44hi CD24- in ESA+ cells (MIA-PaCa-2 [6]): 1.0%
% CD44hi CD24hi in ESA+ cells (MIA-PaCa-2 [6]): 21.2%
% CD44hi CD24low in ESA+ cells (MIA-PaCa-2 [6]): 23.1%
% CSt-like-C (MIA-PaCa-2 [6]): 7.7%
% ESA+ (MIA-PaCa-2 [6]): 33.2%
change of CSt-like-C population (MCF7 [7]; MCF7): increased
cells harvested (MCF7 [7]): 0.4 ×10^6
cells harvested (MIA-PaCa-2 [11]): 3.3 ×10^6 cells
number of CD44+ CD24lo cells (Ovarian and PC): increased
IC50 (MIA-PaCa-2 [12]): 5.3 nM
IC50 (MCF7 [13]): 4.5 nM
IC50 (PANC-1 [14]): 3.9 nM

C[S+]([O-])c1ccc(-c2nc(-c3ccc(F)cc3)c(-c3ccncc3)[nH]2)cc1 (stereo not shown) [SB20380]
effect of treatment of SKOV3.A2 cells on IFN-g production by the indicator cell line (SKOV3.A2 cells): weaker inhibitory effect

CN[C@@H]1C[C@H]2O[C@@](C)([C@@H]1OC)n1c3ccccc3c3c4c(c5c6ccccc6n2c5c31)C(=O)NC4 [staurosporine]
effect of treatment of SKOV3.A2 cells on IFN-g production by the indicator cell line (SKOV3.A2 cells): abolished
